Measurements as given in US8592468B2, “Bacterial thioredoxin reductase inhibitors and methods for use thereof” (Thioredoxin Systems AB, priority 2006, dated 2013).
In brackets after ≈: the same amount, converted by molar mass. Like-named read-outs stand apart in the source and are kept apart here.

How the values were obtained:
[1] = tested on: wild type DHB4 E. coli; test: Bacterial inhibition by ebselen derivates, MIC; conditions: for MIC: Escherichia coli, DHB4E.COLI, 4 h, read-out: MIC for wild type DHB4 E. coli; for MIC for wild type DHB4 E. coli: LB, 37° C., 4 hrs, OD600 below 10% of DMSO control; for sensitivity of gshA^− or gor^− strains compared with wt strain: E. coli DHB4 strains
Procedure: (§4) E. coli DHB4 strains wt, gshA^−, gor^−, oxyR^− were cultured overnight in LB medium. […] OD 600 was detected and DMSO was used as the control. […] The data are the means of two experiments.

[2] = tested on: Gor^- DHB4 E. coli; test: Bacterial inhibition by ebselen derivates, MIC; conditions: for MIC: Escherichia coli, 4 h, read-out: MIC for Gor^- DHB4 E. coli; for MIC for Gor^- DHB4 E. coli: LB, 37° C., 4 hrs, OD600 below 10% of DMSO control
Procedure: as §4

[3] = biological target: T1, E. coli TrxR (Escherichia coli (strain K12), UniProt P0A9P4); test: Measurement of IC50 of ebselen derivates for E. coli TrxR (DTNB assay); format: biochemical
T1 sequence (P0A9P4 2-321 limits assumed): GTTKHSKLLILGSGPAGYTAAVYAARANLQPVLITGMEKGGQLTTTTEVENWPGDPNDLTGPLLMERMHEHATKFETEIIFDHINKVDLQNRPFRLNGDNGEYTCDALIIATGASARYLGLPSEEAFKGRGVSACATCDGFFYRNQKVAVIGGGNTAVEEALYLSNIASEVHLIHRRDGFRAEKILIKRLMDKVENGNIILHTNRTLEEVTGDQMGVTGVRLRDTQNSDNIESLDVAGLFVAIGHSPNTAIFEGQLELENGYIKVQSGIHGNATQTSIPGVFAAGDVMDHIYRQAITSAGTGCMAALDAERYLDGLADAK
Procedure: For screening of different classes of ebselen derivatives as inhibitors of E. coli TrxR, the compounds of different concentration (1-40 μM) were incubated for a minute with mixture containing 100 nM E. coli TrxR, 200 μM NADPH and 2 μM of E. coli Trx. Then 1 mM DTNB was added and the enzyme activity was followed by the initial linear increase at A412 for 5 minutes.
(§1) All the benzisoselenazol-3(2H)-one and bisbenzisoselenazol-3(2H)-one derivatives were tested as potential E. coli TrxR inhibitors by standard DTNB assay. IC50 values were calculated by following the activity of TrxR reducing DTNB by NADPH at 412 nm. The reactions were started by adding 1 mM DTNB to the mixture of 100 nM TrxR, 2 μM Trx, 240 μM NADPH, and different concentration of inhibitor (1-40 μM). […] The reactions were started by adding 6 nM TrxR at room temperature. Inhibition constants (Ki) for all the compounds were measured from Dixon plot (FIGS. 12A-12F), which plots 1/v versus [I] (v=A412/min, I=Inhibitor concentration, FIGS. 12A-12F). Measured IC50 and Ki values (Table 5) indicate that the compounds EbSe 6-9, 12-16 are potent inhibitors for E. coli TrxR. The presence of covalent bond between selenium and nitrogen is so important for the biological property of ebselen derivatives.

[4] = biological target: T1, E. coli TrxR; test: Measurement of Ki of ebselen derivates for E. coli TrxR (Dixon plot, DTNB assay); format: biochemical
Procedure: The detailed inhibition studies using 0.001-4 μM inhibitor were performed in quartz cuvettes and the assay mixture of 500 μL containing E. coli TrxR (6 nM), E. coli Trx (1 or 2 or 4 μM), NADPH (240 μM), and DTNB (1 mM using Zeiss or Ultrospec 3000 Uv-visible spectrophotometer. E. coli TrxR activities were subsequently determined using the standard DTNB assay.
as §1

[5] = tested on: gshA^- DHB4 E. coli; test: Bacterial inhibition by ebselen derivates, MIC; conditions: LB, 37° C., 4 hrs, OD600 below 10% of DMSO control
Procedure: as §4

[6] = biological target: Mammalian TrxR (Bos taurus (Bovine), UniProt O62768); test: Compounds as substrates of mammalian (calf thymus) TrxR, NADPH consumption; format: biochemical
Chain of Mammalian TrxR (Bos taurus (Bovine), UniProt O62768) (O62768 whole entry, looked up): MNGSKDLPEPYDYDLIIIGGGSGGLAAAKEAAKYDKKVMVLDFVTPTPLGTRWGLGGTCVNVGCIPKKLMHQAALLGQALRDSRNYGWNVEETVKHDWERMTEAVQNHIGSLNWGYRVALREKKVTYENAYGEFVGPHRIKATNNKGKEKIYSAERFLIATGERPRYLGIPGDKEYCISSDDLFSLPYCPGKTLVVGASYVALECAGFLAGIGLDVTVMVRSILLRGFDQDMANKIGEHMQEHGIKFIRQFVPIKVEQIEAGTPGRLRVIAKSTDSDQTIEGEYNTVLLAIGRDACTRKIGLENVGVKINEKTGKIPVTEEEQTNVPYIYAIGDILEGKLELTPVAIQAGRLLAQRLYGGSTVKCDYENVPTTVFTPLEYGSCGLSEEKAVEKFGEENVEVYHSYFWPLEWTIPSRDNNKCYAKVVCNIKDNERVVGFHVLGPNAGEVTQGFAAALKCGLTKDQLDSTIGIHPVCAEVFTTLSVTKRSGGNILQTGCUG
Procedure: FIGS. 6A and 6B show ebselen and its sulphur analogue, PZ25, as substrates of calf-thymus TrxR and PZ25 as substrate of E. coli TrxR. In FIG. 6A, 10 μM of ebselen (▴) and 10 μM of PZ25 (▪) were used as substrate of 25 nM calf thymus TrxR. In FIG. 6B, 10 μM of PZ25 was used as substrate for 10 nM calf thymus TrxR (◯) and 10 nM of E. coli TrxR (●). Reactions were started by adding enzymes in cuvettes containing 500 μl TE buffer with 100 μM NADPH, of which the consumption were followed by the changes of the absorption at 340 nm against identical blank without enzymes.
Ebselen diselenide (Δ) and PZ25 disulfide (◯) were reduced with 10 nM calf thymus TrxR, while PZ25 disulphide was reduced by 10 nM of E. coli TrxR (●). Reactions were started by adding enzymes to cuvettes containing 500 μl TE buffer with 100 μM NADPH and 16 μM compounds. The NADPH consumption was followed by the changes of the absorption at 340 nm against identical blank without enzymes.
(§2) The activity of the enzyme was determined at room temperature using an Ultrospec 3000 UV/Visual spectrophotometer (Amersham Biosciences). Measurements of TrxR activity from both calf thymus and E. coli were performed in a buffer containing 50 mM Tris-Cl, 1 mM EDTA, pH 7.5, generally with 100 μM NADPH and the indicated amount of the drugs. The enzyme-catalysed reactions were followed at 340 nm using the standard calculation of NADPH oxidation to NADP^+ with a molar extinction coefficient of 6200 M^−1 cm^−1 (32, 34). The conditions of the assay of bacterial thioredoxin reductase have been described (32, 34) using either 1 mM DTNB or 160 μM insulin as a substrate. In DTNB coupled assays, 240 μM NADPH and 1 mM DTNB were used in the TE buffer and formation of the TNB was measured at 412 nm, where TNB has an extinction coefficient of 13600 M^−1 cm^−1.

[7] = biological target: T1, E. coli TrxR; format: biochemical
Procedure: In FIG. 6A, 10 μM of ebselen (▴) and 10 μM of PZ25 (▪) were used as substrate of 25 nM calf thymus TrxR. In FIG. 6B, 10 μM of PZ25 was used as substrate for 10 nM calf thymus TrxR (◯) and 10 nM of E. coli TrxR (●). Reactions were started by adding enzymes in cuvettes containing 500 μl TE buffer with 100 μM NADPH, of which the consumption were followed by the changes of the absorption at 340 nm against identical blank without enzymes.
Reactions were started by adding enzymes to cuvettes containing 500 μl TE buffer with 100 μM NADPH and 16 μM compounds. The NADPH consumption was followed by the changes of the absorption at 340 nm against identical blank without enzymes.
as §2, with “Measurements of TrxR activity from both calf thymus and E. coli were performed in a buffer containing 50 mM Tris-Cl, 1 mM EDTA, pH 7.5, generally with 100 μM NADPH and the indicated amount of the drugs.” left out
(§3) Further we examined the effect of ebselen in the reduction of disulphide by E. coli Trx and TrxR using both DTNB and insulin as substrates. […] FIGS. 4A and 4B show the effect of ebselen (4A) and ebselen diselenide (4B) on DTNB reduction by E. coli thioredoxin and thioredoxin reductase. Assays in semi-microcuvettes with 0.5 ml solution contained 0.24 mM NADPH, 1 mM DTNB in 50 mM Tris-Cl/1 mM EDTA, pH 7.5 buffer. (A) In the presence of 2 μM (grey filled points), 5 μM (white filled points) and 10 μM (black filled points) of E. coli Trx and 7.6 nM of E. coli TrxR with ebselen at concentrations of zero (squares), 0.5 μM (triangles), 1 μM (rhombus), and 2 μM (rounds), the increase in A412 was measured against a blank. (B) In the presence of 2 μM (grey filled points), 5 μM (white filled points) and 10 μM (black filled points) of E. coli Trx and 10 nM of E. coli TrxR, with ebselen diselenide at concentrations of zero (squares), 1 μM (triangles) and 2 μM (rounds), the increase in A412 was measured against a blank.

[8] = biological target: H. pylori TrxR (Helicobacter pylori (strain ATCC 700392 / 26695) (Campylobacter pylori), UniProt P56431); test: Inhibition of H. pylori TrxR by ebsulfur, insulin reduction assay; format: biochemical; conditions: 4, 20, and 40 μM
Chain of H. pylori TrxR (P56431 whole entry, looked up): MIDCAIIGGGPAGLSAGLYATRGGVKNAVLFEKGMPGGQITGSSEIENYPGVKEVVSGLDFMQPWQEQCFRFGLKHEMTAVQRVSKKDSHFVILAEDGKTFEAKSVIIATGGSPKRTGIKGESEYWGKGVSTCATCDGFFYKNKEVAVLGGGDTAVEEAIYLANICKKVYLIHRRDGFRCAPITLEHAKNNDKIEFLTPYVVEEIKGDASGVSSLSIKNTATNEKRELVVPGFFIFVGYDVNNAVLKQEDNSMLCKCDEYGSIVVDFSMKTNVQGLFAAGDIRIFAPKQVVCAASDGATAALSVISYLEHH
Procedure: H. pylori TrxR activity was followed by insulin reduction after 4 μM of H. pylori Trx addition, where a decrease in absorbance at 340 nm represents activity.

[9] = biological target: T1, E. coli TrxR; test: Inhibition of E. coli TrxR reduction of Trx, DTNB coupled assay (Lineweaver-Burk); format: biochemical
Procedure: FIGS. 4A and 4B show the effect of ebselen (FIG. 4A) and ebselen diselenide (FIG. 4B) on DTNB reduction by E. coli thioredoxin and thioredoxin reductase. Assays were contained in 0.50 ml semi-microcuvettes containing 0.24 mM NADPH, 1 mM DTNB in 0.10 M Tris-Cl, pH 8.0, 1 mM EDTA. The increase in A412 was measured against a blank using 10 nM E. coli TrxR in the presence of 2 μM (grey filled points), 5 μM (white filled points), 10 μM (black filled points) E. coli Trx with 0 (squares), 0.5 μM (triangles), 1 μM (rhombus), 2 μM (rounds) of ebselen or ebselen diselenide.
(A) Ebselen concentrations were 0 μM (▴), 0.5 μM (∀), 1 μM (▪) and 2 μM (Δ). […] (B) Ebselen concentrations were 0 μM (▴), 1 μM (▪) and 2 μM (∀).
as §2, with “Measurements of TrxR activity from both calf thymus and E. coli were performed in a buffer containing 50 mM Tris-Cl, 1 mM EDTA, pH 7.5, generally with 100 μM NADPH and the indicated amount of the drugs.” left out
as §3

[10] = tested on: Staphylococcus aureus; conditions: compared with PZ51; cited from earlier work
[11] = tested on: H. pylori strains; test: Inhibition of the growth of H. pylori by PZ-25 (ebsulfur); format: cell-based
[12] = tested on: Mammalian TrxR; conditions: from reference; cited from earlier work
[13] = biological target: E. coli Trx-(SH)2 (Escherichia coli (strain K12), UniProt P0AA25); conditions: fluorescence spectroscopy; cited from earlier work
[14] = 100 nM TrxR, 2 μM Trx, 1 mM DTNB, read-out: IC50 for E. coli TrxR
[15] = 6 nM TrxR, Trx 1, 2 or 4 μM, Dixon plot, read-out: Ki for E. coli TrxR

O=c1c2ccccc2[se]n1-c1ccc(Cl)cc1 [EbSe 7]
MIC [1]: 34 µM (≈ 10.5 µg/mL) | MIC [2]: 23 µM (≈ 7.1 µg/mL)

Cc1cc(Cl)ccc1-n1[se]c2ccccc2c1=O [EbSe 8]
MIC [1]: 47 µM (≈ 15.2 µg/mL) | MIC [2]: 24 µM (≈ 7.74 µg/mL)

O=C(O)c1ccccc1-n1[se]c2ccccc2c1=O [EbSe 9]
MIC [1]: 49 µM (≈ 15.6 µg/mL) | IC50 [3]: 7.5 µM | Ki [4]: 1.2 µM | MIC [2]: 31 µM (≈ 9.86 µg/mL)

O=C(O)c1ccc(-n2[se]c3ccccc3c2=O)cc1 [EbSe 10]
IC50 [3]: 15 µM

O=c1c2ccccc2[se]n1-c1ccc(Cl)cn1 [EbSe 11]
MIC for wild type DHB4 E. coli [1]: No Inhibition | IC50 [3, 14]: > 40 µM | MIC for Gor^- DHB4 E. coli [2]: No Inhibition | MIC for gshA^- DHB4 E. coli [5]: No Inhibition

O=c1c2ccccc2[se]n1-c1ncccc1[N+](=O)[O-] [EbSe 12]
MIC for wild type DHB4 E. coli [1]: No Inhibition | IC50 [3, 14]: 3 µM | Ki [4, 15]: 0.25 µM | MIC for Gor^- DHB4 E. coli [2]: No Inhibition | MIC for gshA^- DHB4 E. coli [5]: No Inhibition

O=c1c2ccccc2[se]n1-c1ccncc1 [EbSe 13]
MIC [1]: 45 µM (≈ 12.4 µg/mL) | MIC [2]: 24 µM (≈ 6.6 µg/mL)

O=c1c2ccccc2[se]n1CCn1[se]c2ccccc2c1=O [EbSe 14]
sensitivity of gshA^− or gor^− strains compared with wt strain [1]: same sensitivity | MIC [1]: 23 µM (≈ 9.71 µg/mL) | MIC [2]: 19 µM (≈ 8.02 µg/mL)

O=c1c2ccccc2[se]n1CCCn1[se]c2ccccc2c1=O [EbSe 15]
Ki [4, 15]: 0.04 µM

O=c1c2ccccc2[se]n1CCCCCCn1[se]c2ccccc2c1=O [EbSe 16]
sensitivity of gshA^− or gor^− strains compared with wt strain [1]: same sensitivity | MIC [1]: 20 µM (≈ 9.57 µg/mL) | MIC [2]: 35 µM (≈ 16.7 µg/mL)

O=C(Nc1ccccc1)c1ccccc1SSc1ccccc1C(=O)Nc1ccccc1 [PZ25 disulphide]
Km [6]: 47 µM | kcat [6]: 25 s⁻¹ | kcat/KM [6]: 533000 M⁻¹ s⁻¹ | Km ([7]; E. coli TrxR): 27.6 µM | kcat ([7]; E. coli TrxR): 1.67 s⁻¹ | kcat/KM ([7]; E. coli TrxR): 60500 M⁻¹ s⁻¹

O=c1c2ccccc2sn1-c1ccccc1 [PZ25]
H. pylori TrxR activity [8]: inhibited | Km [6]: 2.5 µM | kcat [6]: 23.33 s⁻¹ | kcat/KM [6]: 9.33e+06 M⁻¹ s⁻¹ | inhibition of E. coli TrxR (in words) [9]: not inhibitors | kcat ([7]; E. coli TrxR): 11.7 s⁻¹ | kcat/KM ([7]; E. coli TrxR): 4.67e+06 M⁻¹ s⁻¹ | antibacterial activity of the sulphur analogue [10]: lost the antibacterial activity | MIC ([11]; NCTC11637 strain): 1.56 µg/mL (≈ 6.86 µM) | MIC ([11]; strain YS-16): 0.39 µg/mL (≈ 1.72 µM)

O=C(Nc1ccccc1)c1ccccc1[Se][Se]c1ccccc1C(=O)Nc1ccccc1 [ebselen diselenide]
inhibition of E. coli TrxR (in words) [9]: strongly inhibited | Ki ([9]; Ki (competitive inhibitor of Trx reduction by E. coli TrxR), from Lineweaver-Burk slopes): 0.46 ± 0.05 µM | Ki ([9]; read-out: Ki (competitive inhibitor of Trx reduction by E. coli TrxR), from Lineweaver-Burk slopes): 0.46 µM | Km [12]: 40 µM | kcat [12]: 1.32 s⁻¹ | kcat/KM [12]: 33000 M⁻¹ s⁻¹ | oxidation of NADPH when directly added to E. coli TrxR and NADPH [7]: no oxidations of NADPH | second-order rate constant of reaction with reduced E. coli Trx [13]: 1700 M⁻¹ s⁻¹
